{"source": "ChEMBL document CHEMBL1201862", "about": "“PubChem BioAssay data set” (2004)", "key": {"[1]": {"target": "T1, 1-phosphatidylinositol 4,5-bisphosphate phosphodiesterase gamma-1 (Homo sapiens, UniProt P19174)", "T1 sequence (P19174 whole entry)": "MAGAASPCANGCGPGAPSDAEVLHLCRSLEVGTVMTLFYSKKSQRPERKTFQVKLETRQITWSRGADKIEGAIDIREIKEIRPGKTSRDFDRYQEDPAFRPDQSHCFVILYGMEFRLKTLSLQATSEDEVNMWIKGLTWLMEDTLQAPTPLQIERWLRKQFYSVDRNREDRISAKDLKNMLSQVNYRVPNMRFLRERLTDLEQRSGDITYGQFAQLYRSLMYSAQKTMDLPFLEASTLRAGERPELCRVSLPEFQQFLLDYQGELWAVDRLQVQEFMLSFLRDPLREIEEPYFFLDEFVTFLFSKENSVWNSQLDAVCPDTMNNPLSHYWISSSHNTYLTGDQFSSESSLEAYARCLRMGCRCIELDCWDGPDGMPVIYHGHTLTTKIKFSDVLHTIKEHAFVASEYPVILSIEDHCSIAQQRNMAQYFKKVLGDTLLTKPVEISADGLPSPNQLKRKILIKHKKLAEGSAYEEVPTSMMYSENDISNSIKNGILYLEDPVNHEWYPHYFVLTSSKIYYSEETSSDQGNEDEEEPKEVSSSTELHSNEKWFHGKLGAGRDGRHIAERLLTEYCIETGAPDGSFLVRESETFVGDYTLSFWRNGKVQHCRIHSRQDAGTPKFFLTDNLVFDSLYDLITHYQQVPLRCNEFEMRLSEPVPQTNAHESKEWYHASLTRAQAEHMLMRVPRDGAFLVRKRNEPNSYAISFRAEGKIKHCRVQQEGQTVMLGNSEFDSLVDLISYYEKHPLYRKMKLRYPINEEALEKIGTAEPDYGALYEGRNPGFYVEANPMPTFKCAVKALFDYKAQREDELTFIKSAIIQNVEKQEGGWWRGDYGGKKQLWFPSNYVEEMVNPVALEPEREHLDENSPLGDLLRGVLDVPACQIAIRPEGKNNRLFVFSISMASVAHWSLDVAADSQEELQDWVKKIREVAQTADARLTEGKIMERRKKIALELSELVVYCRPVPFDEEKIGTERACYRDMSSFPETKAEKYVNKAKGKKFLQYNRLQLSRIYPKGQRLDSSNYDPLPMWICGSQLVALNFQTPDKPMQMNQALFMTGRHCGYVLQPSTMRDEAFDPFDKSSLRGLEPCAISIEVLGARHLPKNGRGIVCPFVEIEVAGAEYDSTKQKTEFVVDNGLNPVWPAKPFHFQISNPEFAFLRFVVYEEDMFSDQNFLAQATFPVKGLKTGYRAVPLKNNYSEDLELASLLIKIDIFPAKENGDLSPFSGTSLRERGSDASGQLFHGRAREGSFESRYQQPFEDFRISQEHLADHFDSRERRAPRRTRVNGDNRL", "assay": "Counterscreen for inhibitors of phospholipase C isozymes (PLC-B3): Fluorescence-based biochemical high throughput dose response assay to identify inhibitors of phospholipase C isozymes (PLC-gamma1)."}, "[2]": {"target": "T2, Zinc finger protein mex-5 (Caenorhabditis elegans, UniProt Q9XUB2)", "T2 sequence (Q9XUB2 whole entry)": "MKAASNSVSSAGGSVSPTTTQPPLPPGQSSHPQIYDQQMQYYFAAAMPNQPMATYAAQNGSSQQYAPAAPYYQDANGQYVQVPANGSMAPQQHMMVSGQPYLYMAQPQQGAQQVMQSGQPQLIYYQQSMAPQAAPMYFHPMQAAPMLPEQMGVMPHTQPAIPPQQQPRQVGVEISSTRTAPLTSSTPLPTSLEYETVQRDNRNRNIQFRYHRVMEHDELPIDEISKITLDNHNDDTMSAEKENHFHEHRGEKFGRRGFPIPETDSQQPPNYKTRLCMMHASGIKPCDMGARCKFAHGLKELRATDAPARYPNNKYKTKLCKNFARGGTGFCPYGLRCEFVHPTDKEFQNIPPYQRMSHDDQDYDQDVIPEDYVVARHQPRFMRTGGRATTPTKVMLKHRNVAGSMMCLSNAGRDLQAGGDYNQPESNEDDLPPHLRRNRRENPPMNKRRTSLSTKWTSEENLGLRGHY", "assay": "potency of MEX-5 RNA-binding blockers – biochemical, C. elegans, fluorescence polarization, dose response (AID 1960)"}, "[3]": {"target": "Leukocyte tyrosine kinase receptor (Homo sapiens, UniProt P29376)", "assay": "Navigating the Kinome. Panel member name: LTK", "assay_type": "functional"}, "[4]": {"target": "Tyrosine-protein kinase Fer (Homo sapiens, UniProt P16591)", "sequence (P16591 whole entry)": "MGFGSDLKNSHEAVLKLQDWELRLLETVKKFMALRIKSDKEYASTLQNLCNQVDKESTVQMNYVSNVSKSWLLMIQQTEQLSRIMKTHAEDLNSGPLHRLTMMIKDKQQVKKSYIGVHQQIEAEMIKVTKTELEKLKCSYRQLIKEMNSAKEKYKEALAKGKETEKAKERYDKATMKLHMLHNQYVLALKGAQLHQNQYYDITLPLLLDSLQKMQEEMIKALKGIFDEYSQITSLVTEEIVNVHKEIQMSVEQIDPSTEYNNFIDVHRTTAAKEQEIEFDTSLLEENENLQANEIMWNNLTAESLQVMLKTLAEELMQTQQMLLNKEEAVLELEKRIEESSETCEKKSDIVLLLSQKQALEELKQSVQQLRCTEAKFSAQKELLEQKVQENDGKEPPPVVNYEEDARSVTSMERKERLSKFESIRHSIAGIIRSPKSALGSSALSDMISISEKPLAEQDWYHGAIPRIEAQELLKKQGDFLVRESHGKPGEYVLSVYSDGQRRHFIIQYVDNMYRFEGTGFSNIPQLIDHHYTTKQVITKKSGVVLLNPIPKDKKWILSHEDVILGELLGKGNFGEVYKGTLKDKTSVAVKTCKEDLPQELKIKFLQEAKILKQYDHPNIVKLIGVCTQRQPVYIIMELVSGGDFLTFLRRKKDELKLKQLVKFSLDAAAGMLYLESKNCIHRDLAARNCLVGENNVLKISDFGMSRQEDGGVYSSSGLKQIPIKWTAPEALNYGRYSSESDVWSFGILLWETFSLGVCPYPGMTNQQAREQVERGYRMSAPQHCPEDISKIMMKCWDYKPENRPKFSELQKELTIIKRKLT", "assay_type": "functional"}, "[5]": {"target": "Tyrosine-protein kinase ABL1 (Homo sapiens, UniProt P00519)", "assay_type": "functional"}, "[6]": {"target": "Proto-oncogene tyrosine-protein kinase ROS (Homo sapiens, UniProt P08922)", "assay_type": "functional"}, "[7]": {"target": "Mitogen-activated protein kinase kinase kinase kinase 2 (Homo sapiens, UniProt Q12851)", "sequence (Q12851 whole entry)": "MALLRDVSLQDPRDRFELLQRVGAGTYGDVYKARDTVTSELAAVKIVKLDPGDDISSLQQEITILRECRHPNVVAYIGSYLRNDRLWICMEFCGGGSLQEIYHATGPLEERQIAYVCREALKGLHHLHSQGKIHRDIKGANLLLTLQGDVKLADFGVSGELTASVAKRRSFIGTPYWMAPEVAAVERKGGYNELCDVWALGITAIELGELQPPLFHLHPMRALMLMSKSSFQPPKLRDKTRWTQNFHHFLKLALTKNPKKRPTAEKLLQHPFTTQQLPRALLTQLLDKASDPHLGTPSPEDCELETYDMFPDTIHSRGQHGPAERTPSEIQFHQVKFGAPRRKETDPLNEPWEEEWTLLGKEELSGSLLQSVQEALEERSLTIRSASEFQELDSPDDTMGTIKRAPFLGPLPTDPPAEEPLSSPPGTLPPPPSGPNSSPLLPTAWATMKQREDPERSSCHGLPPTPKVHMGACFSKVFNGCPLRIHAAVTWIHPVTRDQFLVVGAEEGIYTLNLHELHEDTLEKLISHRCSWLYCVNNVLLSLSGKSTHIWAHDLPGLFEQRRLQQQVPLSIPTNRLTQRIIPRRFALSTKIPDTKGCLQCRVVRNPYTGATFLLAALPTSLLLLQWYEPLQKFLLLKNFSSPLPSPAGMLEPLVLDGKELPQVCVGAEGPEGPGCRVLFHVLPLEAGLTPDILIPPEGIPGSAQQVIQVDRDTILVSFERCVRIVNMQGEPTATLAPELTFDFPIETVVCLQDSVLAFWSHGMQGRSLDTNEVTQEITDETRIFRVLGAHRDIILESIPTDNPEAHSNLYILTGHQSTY", "assay_type": "functional"}, "[8]": {"target": "Serine/threonine-protein kinase BRSK1 (Homo sapiens, UniProt Q8TDC3)", "assay_type": "functional"}, "[9]": {"target": "Tyrosine-protein kinase Fyn (Homo sapiens, UniProt P06241)", "assay_type": "functional"}, "[10]": {"target": "Tyrosine-protein kinase Srms (Homo sapiens, UniProt Q9H3Y6)", "assay_type": "functional"}, "[11]": {"target": "Mitogen-activated protein kinase 12 (Homo sapiens, UniProt P53778)", "assay_type": "functional"}, "[12]": {"target": "Serine/threonine-protein kinase Chk2 (Homo sapiens, UniProt O96017)", "assay_type": "functional"}, "[13]": {"target": "Serine/threonine-protein kinase D2 (Homo sapiens, UniProt Q9BZL6)", "sequence (Q9BZL6 whole entry)": "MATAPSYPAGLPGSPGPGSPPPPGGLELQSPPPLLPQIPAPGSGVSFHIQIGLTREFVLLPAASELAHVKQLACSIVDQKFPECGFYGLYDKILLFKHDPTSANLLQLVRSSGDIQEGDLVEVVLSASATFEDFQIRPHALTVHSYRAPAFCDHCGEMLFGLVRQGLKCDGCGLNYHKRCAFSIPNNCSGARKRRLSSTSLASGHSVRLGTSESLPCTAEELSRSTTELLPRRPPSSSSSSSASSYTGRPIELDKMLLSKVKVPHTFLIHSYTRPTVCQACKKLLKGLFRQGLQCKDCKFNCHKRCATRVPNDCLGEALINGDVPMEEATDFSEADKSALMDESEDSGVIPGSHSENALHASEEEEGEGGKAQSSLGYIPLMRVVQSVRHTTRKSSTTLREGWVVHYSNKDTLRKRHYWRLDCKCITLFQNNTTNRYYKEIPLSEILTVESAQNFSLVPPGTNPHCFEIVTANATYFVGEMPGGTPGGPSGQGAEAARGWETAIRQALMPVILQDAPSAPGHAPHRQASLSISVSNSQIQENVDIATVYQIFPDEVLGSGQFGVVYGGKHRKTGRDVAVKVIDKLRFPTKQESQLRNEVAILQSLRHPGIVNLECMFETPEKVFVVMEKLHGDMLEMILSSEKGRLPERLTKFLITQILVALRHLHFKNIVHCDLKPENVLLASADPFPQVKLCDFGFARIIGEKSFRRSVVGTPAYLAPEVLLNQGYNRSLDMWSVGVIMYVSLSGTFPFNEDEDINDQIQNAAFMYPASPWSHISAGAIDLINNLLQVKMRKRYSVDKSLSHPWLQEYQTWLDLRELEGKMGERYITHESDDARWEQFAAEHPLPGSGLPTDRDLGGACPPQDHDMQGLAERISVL", "assay_type": "functional"}, "[14]": {"target": "Leucine-rich repeat serine/threonine-protein kinase 2 (Homo sapiens, UniProt Q5S007)", "assay_type": "functional"}, "[15]": {"target": "Interleukin-1 receptor-associated kinase 1 (Homo sapiens, UniProt P51617)", "sequence (P51617 whole entry)": "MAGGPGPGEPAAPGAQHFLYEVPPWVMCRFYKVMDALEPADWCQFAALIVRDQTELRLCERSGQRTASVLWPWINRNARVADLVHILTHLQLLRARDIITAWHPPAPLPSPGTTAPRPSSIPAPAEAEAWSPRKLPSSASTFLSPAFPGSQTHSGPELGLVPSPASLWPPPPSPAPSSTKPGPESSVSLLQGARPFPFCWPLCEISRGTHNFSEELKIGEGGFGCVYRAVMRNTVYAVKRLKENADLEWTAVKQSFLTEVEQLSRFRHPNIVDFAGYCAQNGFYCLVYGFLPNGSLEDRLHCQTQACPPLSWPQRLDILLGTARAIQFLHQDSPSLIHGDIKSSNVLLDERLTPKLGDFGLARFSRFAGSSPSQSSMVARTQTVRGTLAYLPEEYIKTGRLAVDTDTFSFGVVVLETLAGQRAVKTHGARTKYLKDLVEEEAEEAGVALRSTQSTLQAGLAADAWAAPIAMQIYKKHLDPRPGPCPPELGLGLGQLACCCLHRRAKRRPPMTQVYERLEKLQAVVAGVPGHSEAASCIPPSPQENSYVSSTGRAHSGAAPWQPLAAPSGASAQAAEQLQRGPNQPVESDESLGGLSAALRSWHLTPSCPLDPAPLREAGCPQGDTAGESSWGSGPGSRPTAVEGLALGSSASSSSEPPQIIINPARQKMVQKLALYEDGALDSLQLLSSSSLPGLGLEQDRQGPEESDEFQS", "assay_type": "functional"}, "[16]": {"target": "Ephrin type-A receptor 2 (Homo sapiens, UniProt P29317)", "sequence (P29317 whole entry)": "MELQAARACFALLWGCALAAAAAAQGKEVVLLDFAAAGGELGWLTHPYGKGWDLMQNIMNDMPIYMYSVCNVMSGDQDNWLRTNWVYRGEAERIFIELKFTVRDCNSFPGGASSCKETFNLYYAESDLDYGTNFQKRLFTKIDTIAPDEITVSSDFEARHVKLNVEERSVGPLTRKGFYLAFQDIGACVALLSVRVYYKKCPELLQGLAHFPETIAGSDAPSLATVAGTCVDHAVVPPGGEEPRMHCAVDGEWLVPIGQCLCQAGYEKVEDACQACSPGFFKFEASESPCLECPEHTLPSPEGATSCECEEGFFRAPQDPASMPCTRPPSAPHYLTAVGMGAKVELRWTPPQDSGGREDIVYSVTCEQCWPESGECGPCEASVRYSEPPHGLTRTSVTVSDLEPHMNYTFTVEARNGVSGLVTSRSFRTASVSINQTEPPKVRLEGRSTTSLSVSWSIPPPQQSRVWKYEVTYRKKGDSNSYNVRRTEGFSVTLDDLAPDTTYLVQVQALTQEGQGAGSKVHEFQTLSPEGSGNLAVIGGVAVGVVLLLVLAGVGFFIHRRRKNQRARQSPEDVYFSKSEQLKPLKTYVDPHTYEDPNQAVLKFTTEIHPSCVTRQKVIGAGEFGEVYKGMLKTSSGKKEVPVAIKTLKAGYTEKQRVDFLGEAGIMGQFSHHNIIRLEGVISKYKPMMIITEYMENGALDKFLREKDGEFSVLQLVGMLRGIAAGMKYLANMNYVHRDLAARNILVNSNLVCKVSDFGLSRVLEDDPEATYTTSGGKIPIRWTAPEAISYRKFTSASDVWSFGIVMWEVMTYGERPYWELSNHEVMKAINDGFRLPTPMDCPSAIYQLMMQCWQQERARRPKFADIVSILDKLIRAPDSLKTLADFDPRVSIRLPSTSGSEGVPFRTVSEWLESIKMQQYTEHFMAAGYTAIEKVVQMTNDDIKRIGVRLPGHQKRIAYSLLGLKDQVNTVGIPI", "assay_type": "functional"}, "[17]": {"target": "SRSF protein kinase 1 (Homo sapiens, UniProt Q96SB4)", "assay_type": "functional"}, "[18]": {"target": "Dual specificity protein kinase CLK4 (Homo sapiens, UniProt Q9HAZ1)", "assay_type": "functional"}, "[19]": {"target": "Tyrosine-protein kinase FRK (Homo sapiens, UniProt P42685)", "sequence (P42685 whole entry)": "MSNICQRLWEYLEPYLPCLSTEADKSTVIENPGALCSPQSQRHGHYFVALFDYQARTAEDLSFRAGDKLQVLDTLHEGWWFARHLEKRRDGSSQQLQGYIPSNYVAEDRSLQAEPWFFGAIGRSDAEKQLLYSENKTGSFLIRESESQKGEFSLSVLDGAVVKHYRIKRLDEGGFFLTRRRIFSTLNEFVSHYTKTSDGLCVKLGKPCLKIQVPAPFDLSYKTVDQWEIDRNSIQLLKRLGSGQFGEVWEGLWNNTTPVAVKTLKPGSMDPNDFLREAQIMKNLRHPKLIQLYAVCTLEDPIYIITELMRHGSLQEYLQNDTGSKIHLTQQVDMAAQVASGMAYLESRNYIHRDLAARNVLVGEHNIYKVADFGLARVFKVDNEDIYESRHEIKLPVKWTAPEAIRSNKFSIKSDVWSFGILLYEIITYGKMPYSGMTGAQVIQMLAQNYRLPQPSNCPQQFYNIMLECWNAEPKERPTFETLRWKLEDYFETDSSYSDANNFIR", "assay_type": "functional"}, "[20]": {"target": "Serine/threonine-protein kinase PLK4 (Homo sapiens, UniProt O00444)", "assay_type": "functional"}, "[21]": {"target": "Mitogen-activated protein kinase 14 (Homo sapiens, UniProt Q16539)", "sequence (Q16539 whole entry)": "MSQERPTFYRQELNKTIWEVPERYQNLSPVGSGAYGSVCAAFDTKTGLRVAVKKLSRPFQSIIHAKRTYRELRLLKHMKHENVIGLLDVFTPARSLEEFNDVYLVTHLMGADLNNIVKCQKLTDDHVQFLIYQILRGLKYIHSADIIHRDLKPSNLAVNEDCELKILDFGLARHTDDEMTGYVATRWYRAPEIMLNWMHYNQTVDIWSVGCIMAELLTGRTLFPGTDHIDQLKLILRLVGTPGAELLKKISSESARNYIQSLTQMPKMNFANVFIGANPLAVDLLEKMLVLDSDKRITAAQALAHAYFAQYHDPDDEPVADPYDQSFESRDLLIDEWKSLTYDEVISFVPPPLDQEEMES", "assay_type": "functional"}}, "note": "Calls of active or inactive are those of the source.", "data": [{"smiles": "Cc1ccc(/C=C2/C(=O)c3ccc(C(=O)O)cc3C2=O)o1", "values": [{"measurement": "IC50", "setting": "[1]", "result": "> 122000 nM (inactive)"}, {"measurement": "EC50", "setting": "[2]", "result": "63600 nM (active)"}]}, {"smiles": "Clc1cc(NC2CCCCC2)nc(-c2c[nH]c3ncccc23)n1", "values": [{"measurement": "Ki", "setting": "[3]", "result": "> 2510 nM (inactive)"}, {"measurement": "Ki", "setting": "[4]", "result": "398 nM (active)"}, {"measurement": "Ki", "setting": "[5]", "result": "> 631 nM (inactive)"}, {"measurement": "Ki", "setting": "[6]", "result": "200 nM (active)"}, {"measurement": "Ki", "setting": "[7]", "result": "398 nM (active)"}, {"measurement": "Ki", "setting": "[8]", "result": "2000 nM (active)"}, {"measurement": "Ki", "setting": "[9]", "result": "> 794 nM (inactive)"}, {"measurement": "Ki", "setting": "[10]", "result": "> 1580 nM (inactive)"}, {"measurement": "Ki", "setting": "[11]", "result": "3980 nM (active)"}, {"measurement": "Ki", "setting": "[12]", "result": "316 nM (active)"}, {"measurement": "Ki", "setting": "[13]", "result": "1580 nM (active)"}, {"measurement": "Ki", "setting": "[14]", "result": "2510 nM (active)"}, {"measurement": "Ki", "setting": "[15]", "result": "2510 nM (active)"}, {"measurement": "Ki", "setting": "[16]", "result": "> 3160 nM (inactive)"}, {"measurement": "Ki", "setting": "[17]", "result": "> 7940 nM (inactive)"}, {"measurement": "Ki", "setting": "[18]", "result": "158 nM (active)"}, {"measurement": "Ki", "setting": "[19]", "result": "> 2510 nM (inactive)"}, {"measurement": "Ki", "setting": "[20]", "result": "> 3980 nM (inactive)"}, {"measurement": "Ki", "setting": "[21]", "result": "> 3980 nM (inactive)"}]}]}
